ChEMBL document CHEMBL5465560, “Selectivity Literature for EUbOPEN Chemogenomic Library” (2024)
Blank lines part the entries; values can stand above or below the compound they belong to.

What was measured:
[1] = Selectivity interaction (KinomeScan (DiscoverX)) EUB0000607a CDK2H; conditions: at 10 µM
[2] = target: Mitogen-activated protein kinase kinase kinase 10 (Homo sapiens) (UniProt Q02779); test: Selectivity interaction (KinomeScan (DiscoverX)) EUB0000595a MAP3K10; conditions: at 10 µM
[3] = target: Ribosomal protein S6 kinase alpha-4 (Homo sapiens) (UniProt O75676); test: Selectivity interaction (Kinase panel (KiNativ target engagement assay in Jurkat cells)) EUB0001635a RPS6KA4; type: cell-based; conditions: Selectivity number of off-targets 0.0, Selectivity number of targets 233.0, Source Knowledge https://www.sciencedirect.com/science/article/pii/S2451945619300674?via%3Dihub, at 1 µM
Sequence of Ribosomal protein S6 kinase alpha-4 (Homo sapiens) (O75676 whole entry, looked up): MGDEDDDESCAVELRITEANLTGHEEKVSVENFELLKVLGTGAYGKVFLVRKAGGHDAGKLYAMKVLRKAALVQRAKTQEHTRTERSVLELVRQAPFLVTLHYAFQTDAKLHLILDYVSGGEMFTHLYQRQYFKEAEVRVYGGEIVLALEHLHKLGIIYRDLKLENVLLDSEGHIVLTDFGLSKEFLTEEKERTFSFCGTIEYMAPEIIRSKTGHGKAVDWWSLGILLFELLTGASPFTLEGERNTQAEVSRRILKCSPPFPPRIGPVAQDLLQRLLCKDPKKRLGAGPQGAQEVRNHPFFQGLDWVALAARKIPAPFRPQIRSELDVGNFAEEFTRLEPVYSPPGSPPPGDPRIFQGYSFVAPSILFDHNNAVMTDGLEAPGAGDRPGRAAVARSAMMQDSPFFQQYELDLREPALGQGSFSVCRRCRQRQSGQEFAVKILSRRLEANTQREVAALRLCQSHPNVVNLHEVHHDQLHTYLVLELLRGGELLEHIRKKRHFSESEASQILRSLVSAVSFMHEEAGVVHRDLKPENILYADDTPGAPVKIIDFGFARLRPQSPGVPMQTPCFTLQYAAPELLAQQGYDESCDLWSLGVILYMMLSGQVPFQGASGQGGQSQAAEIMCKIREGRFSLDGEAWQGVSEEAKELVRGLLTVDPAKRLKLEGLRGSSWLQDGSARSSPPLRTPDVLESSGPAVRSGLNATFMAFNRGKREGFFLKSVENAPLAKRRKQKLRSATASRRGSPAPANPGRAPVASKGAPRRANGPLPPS

[4] = target: T1, Serine/threonine-protein kinase ULK1 (Homo sapiens) (UniProt O75385); test: Selectivity interaction (ActivX KiNativ screen (kinase selectivity in THP-1 cell lysates)) EUB0000639a ULK1; type: subcellular; conditions: lysate, at 1 µM
T1 sequence (whole entry): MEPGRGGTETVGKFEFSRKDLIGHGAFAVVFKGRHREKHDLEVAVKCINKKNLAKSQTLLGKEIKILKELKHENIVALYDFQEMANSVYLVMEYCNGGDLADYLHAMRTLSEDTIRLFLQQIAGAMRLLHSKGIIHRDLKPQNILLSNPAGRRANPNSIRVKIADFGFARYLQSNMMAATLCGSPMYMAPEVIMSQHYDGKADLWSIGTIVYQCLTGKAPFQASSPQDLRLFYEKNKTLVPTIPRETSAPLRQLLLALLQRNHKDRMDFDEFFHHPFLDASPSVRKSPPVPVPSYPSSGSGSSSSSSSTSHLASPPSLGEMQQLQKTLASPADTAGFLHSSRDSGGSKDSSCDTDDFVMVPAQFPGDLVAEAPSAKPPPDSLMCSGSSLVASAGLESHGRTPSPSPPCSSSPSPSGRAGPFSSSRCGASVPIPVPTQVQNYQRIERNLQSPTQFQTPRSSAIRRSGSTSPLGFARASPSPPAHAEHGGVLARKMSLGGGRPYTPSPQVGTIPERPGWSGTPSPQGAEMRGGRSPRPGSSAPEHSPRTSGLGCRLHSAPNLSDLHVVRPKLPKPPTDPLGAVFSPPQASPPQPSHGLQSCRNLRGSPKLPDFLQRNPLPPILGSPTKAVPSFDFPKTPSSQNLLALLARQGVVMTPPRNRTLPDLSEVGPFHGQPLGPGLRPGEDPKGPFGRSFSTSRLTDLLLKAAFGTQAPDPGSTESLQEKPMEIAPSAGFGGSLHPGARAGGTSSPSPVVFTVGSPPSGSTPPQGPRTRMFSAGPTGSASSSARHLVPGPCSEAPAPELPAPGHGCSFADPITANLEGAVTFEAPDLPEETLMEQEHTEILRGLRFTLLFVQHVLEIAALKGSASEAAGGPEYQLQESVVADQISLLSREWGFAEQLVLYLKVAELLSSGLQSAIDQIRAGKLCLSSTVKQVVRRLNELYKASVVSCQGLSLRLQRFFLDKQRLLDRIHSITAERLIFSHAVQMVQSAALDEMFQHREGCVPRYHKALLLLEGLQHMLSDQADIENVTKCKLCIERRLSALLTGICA

[5] = target: Bromodomain-containing protein 4 (Homo sapiens, UniProt O60885); test: Selectivity interaction (Bromodomain panel (DSF asssay)) EUB0000270b BRD4
[6] = target: T2, Serine/threonine-protein kinase Sgk2 (Homo sapiens) (UniProt Q9HBY8); test: Selectivity interaction (Kinase panel (Z-LYTE Assay)) EUB0001632a SGK2; conditions: at 10 µM
T2 sequence (whole entry): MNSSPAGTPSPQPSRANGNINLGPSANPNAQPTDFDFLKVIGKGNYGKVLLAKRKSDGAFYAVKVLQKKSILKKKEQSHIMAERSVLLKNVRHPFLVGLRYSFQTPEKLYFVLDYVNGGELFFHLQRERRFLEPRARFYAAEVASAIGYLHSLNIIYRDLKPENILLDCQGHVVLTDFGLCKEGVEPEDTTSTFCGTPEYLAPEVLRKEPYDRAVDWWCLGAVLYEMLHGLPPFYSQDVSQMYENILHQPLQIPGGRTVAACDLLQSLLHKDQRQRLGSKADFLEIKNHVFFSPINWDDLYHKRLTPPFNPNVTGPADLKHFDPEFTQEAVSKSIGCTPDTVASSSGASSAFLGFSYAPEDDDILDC

[7] = target: T3, Serine/threonine-protein kinase TAO2 (Homo sapiens) (UniProt Q9UL54); test: Selectivity interaction (Kinase panel (Z-LYTE Assay)) EUB0001632a TAOK2; conditions: at 10 µM
T3 sequence (whole entry): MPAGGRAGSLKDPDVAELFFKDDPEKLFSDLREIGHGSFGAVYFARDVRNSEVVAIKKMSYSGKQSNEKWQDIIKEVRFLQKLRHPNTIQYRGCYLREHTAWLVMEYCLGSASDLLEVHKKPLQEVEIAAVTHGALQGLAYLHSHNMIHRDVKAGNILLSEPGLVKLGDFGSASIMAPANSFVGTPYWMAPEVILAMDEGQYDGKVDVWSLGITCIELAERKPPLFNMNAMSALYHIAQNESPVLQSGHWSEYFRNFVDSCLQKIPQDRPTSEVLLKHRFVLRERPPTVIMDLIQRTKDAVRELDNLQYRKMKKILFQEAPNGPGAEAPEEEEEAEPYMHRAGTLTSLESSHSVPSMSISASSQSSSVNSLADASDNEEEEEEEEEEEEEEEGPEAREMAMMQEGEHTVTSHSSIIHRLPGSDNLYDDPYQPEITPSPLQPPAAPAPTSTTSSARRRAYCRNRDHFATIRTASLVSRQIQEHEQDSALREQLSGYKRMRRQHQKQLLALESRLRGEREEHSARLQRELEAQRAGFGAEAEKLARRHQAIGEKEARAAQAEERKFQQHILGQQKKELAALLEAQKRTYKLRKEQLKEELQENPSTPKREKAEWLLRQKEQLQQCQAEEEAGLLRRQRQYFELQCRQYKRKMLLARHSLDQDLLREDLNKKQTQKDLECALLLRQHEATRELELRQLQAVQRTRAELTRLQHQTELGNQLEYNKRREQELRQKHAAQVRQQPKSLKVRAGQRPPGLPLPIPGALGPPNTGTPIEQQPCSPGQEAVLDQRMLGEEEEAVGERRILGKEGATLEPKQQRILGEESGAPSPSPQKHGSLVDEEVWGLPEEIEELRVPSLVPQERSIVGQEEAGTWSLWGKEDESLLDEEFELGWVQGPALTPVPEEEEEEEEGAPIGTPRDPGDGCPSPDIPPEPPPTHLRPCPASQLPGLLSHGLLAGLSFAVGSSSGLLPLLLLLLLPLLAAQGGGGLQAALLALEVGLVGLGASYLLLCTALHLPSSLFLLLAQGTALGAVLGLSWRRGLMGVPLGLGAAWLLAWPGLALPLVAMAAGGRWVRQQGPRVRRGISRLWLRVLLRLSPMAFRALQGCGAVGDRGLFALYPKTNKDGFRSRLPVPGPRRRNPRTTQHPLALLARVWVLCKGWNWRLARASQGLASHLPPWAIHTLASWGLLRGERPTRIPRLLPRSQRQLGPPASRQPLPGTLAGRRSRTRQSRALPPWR

Sequence of Mitogen-activated protein kinase kinase kinase 10 (Homo sapiens) (Q02779 whole entry, looked up): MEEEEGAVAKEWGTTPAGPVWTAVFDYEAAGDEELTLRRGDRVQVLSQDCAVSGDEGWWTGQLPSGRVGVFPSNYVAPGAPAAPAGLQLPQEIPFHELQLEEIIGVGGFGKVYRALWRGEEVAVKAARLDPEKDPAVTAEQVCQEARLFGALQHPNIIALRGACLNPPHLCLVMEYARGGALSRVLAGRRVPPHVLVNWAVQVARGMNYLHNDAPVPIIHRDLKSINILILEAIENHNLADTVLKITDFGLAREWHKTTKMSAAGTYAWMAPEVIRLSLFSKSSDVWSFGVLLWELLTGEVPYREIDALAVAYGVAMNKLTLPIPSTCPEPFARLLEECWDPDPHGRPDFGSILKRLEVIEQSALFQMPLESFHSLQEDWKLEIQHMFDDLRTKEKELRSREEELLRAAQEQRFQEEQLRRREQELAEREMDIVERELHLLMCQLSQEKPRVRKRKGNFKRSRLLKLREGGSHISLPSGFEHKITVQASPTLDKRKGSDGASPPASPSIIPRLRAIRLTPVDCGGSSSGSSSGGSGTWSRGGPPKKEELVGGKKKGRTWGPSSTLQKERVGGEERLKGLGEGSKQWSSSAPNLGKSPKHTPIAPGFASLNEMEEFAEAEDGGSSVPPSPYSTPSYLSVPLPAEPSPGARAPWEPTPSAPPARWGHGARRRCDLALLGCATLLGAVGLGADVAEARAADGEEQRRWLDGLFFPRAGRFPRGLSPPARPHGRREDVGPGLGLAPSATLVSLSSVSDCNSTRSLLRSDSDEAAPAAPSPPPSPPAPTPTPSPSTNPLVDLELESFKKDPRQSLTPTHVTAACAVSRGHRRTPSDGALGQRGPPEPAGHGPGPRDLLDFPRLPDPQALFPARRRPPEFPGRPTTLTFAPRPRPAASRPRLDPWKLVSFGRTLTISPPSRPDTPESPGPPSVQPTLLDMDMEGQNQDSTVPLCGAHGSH

- dTM [5]: -0.92 K
SMILES: Cc1cc(CN)cc(C)c1-c1ncn(C)c1-c1cncn1C

- % of control [6]: 8.85%
- % of control [7]: 41.6%
SMILES: Cn1cc(-n2cnc3c(NCc4nc5cc(Cl)c(Cl)cc5[nH]4)nc(N4CCOCC4)nc32)cn1

Further lines, the compound ahead of its results:

SMILES: CNC(=O)Nc1ccc(-c2nc(N3CC4CCC(C3)O4)c3cnn(C4CCC5(CC4)OCCO5)c3n2)cc1
- % of control [1]: 100%

SMILES: COCC(=O)NC/C=C/c1ccc2ncnc(Nc3ccc(Oc4ccc(C)nc4)c(C)c3)c2c1 [CP-724714]
- % of control [2]: 100%

SMILES: C=CC(=O)Nc1ccc(C(=O)Nc2[nH]nc3c2CN(C(=O)N[C@H](CN(C)C)c2ccccc2)C3(C)C)cc1
- % of engagement [3]: -6.3%

SMILES: CC[C@@H]1[C@H](F)C(=O)N[C@@H]1COc1nccc2cc(C(N)=O)c(OC)cc12 [ZIMLOVISERTIB]
- % of inhibition [4]: -53.5%
